We go through 6 molecules from patent US20230129095A1, “PEPTIDE INHIBITORS OF INTERLEUKIN-23 RECEPTOR AND THEIR USE TO TREAT INFLAMMATORY DISEASES” (Protagonist Therapeutics, Inc., priority 2020, published 2023).

Series [1] deals with Natural killer (NK) cells. Type of series: cell-based, human. The text has this:
Where not shown, data was not yet determined.

A short description of series [2]: Stability in simulated intestinal fluid (SIF). The class given is in vitro ADME. As to conditions: 100 fold dilution of standard SIF concentration, 37° C., 20 μM. On the procedure:
Studies were carried out in simulated intestinal fluid (SIF) and simulated gastric fluid (SGF) to evaluate gastric stability of the peptide inhibitors of the present invention. In addition, studies were carried out to assess redox stability of the peptide inhibitors of the present invention.
SIF was prepared by adding 6.8 g of monobasic potassium phosphate and 10.0 g of pancreatin to 1.0 L of water. After dissolution, the pH was adjusted to 6.8 using NaOH. DMSO stocks (2 mM) were first prepared for the test compounds. Aliquots of the DMSO solutions were dosed into 6 individual tubes, each containing 0.5 mL of SIF, which is pre-warmed to 37° C. The final test compound concentration was 20 μM. The vials were kept in a benchtop Thermomixer® for the duration of the experiment. At each timepoint (0, 5, 10, 20, 40, 60, or 360 minutes or 24 hours), 1.0 mL of acetonitrile containing 1% formic acid was added to one vial to terminate the reaction. Samples were stored at 4° C. until the end of the experiment. After the final timepoint is sampled, the tubes were mixed and then centrifuged at 3,000 rpm for 10 minutes. Aliquots of the supernatant were removed, diluted 1:1 into distilled water containing internal standard, and analyzed by LCMS/MS. Percent remaining at each timepoint was calculated based on the peak area response ratio of test to compound to internal standard. Time 0 was set to 100%, and all later timepoints were calculated relative to time 0. Half-lives were calculated by fitting to a first-order exponential decay equation using Graphpad.

Series [3] can be described thus: Stability in human fecal homogenate (anaerobic). The class given is in vitro ADME. As to conditions: pH 6.8, 20% human fecal homogenate, 37° C., up to 24 hours, read-out: t1/2: Human Feces anaerobic. The protocol:
(§1) Studies were carried out in human or cynomolgus monkey fecal homogenate to evaluate gastrointestinal stability of the peptide inhibitors of the present invention.
(§2) Fecal homogenate ([…]) was prepared by adding 4 mL of growth medium (1 liter contains 2 g peptone water powder, 2 g yeast extract, 0.1 g NaCl, 0.04 g KH2PO4, 0.01 g CaCl2.6H2O, 0.01 g MgSO4.7H2O, 2 mL Tween 80, 0.5 g bile salts, 0.5 g L-cysteine HCl, 2 g NaHCO3, and 10 μL Vitamin K, pH adjusted to 6.8, and sterilized by filtration through a 0.22 μm filter) to every gram of feces (pooled freshly collected human or cynomolgus monkey feces). The suspension was vortexed to break up large clumps, and homogenized using a bead mill homogenizer. Centrifuged the homogenate at 2800×g for 15 min. The supernatant is taken out and used for incubations. DMSO stocks (10 mM) were first prepared for the test compounds. Incubations were performed in an anaerobic chamber conditioned at 37° C. Aliquots of the DMSO solutions were dosed into 1.0 mL aliquots of 20% fecal homogenate, which are pre-warmed to 37° C. The final test compound concentration was 20 μM. At each timepoint (0, 20 min, 1, 3, 6, or 24 hours), 100 μL aliquot of each incubation mixture is taken out and added to separate tubes containing 300 μL of 50% acetonitrile/50% methanol and an internal standard to terminate the reaction. Samples were taken out of the anaerobic chamber and stored at 4° C. until the end of the experiment. After the final timepoint is sampled, the tubes were mixed and then centrifuged at 3,000 rpm for 10 minutes. Aliquots of the supernatant were removed, diluted 1:1 into distilled water containing 0.1% formic acid, and analyzed by LC/MS/MS. Percent remaining at each timepoint was calculated based on the peak area response ratio of test to compound to internal standard. Time 0 was set to 100%, and all later timepoints were calculated relative to time 0. Half-lives were calculated by fitting to a first-order exponential decay equation using Graphpad or Excel.

A short description of series [4]: Stability in cynomolgus monkey fecal homogenate (anaerobic). The class given is in vitro ADME. As to conditions: pH 6.8, 20% cynomolgus monkey fecal homogenate, 37° C., up to 24 hours, read-out: t1/2: Monkey Feces anaerobic (converted). The protocol: as §1, §2
The nature of series [5]: Stability in rat plasma. The class given is in vitro ADME. As to conditions: both sexes, SD rat plasma, EDTA, 37° C., up to 24 hours, read-out: t1/2: Rat Plasma EDTA. On the procedure: Peptides of interest (20 μM) were incubated with pre-warmed rat plasma (SD rat, mixed gender pooled, EDTA, filtered through 0.22 μm, BioreclamationIVT) at 37° C. Aliquots were taken at various time points up to 24 hours (e.g. 0, 0.25, 1, 3, 6 and 24 hr), and immediately quenched with 4 volumes of organic solvent (acetonitrile/methanol (1:1) and 0.1% formic acid, containing 1 μM internal standard). Quenched samples were stored at 4° C. until the end of the experiment and centrifuged at 4,000 rpm for 10 minutes. The supernatant were diluted 1:1 with deionized water and analyzed using LC-MS. Percentage remaining at each time point was calculated based on the peak area ratio (analyte over internal standard) relative to the initial level at time zero. Half-lives were calculated by fitting to a first-order exponential decay equation using GraphPad.

[6] abbreviates: 20% fecal homogenate (supernatant).

Each structure is given as a SMILES string. *1 amine or outer side, *2 acyl side, *3 side chain or, on linkers, in order; H or OH if unused. Where a SMILES comes first, the peptide text is derived from it. Bridges are numbered along the chain shown (N, C = ends). [ ]: non-standard residue; d: D form. X1 = O=C([C@H](Cc1c[nH]c2c(-c3cccc(C(F)(F)F)c3)cccc12)N[*:1])[*:2]; X2 = O=C([C@H](Cc1c[nH]c2c(-c3ccc(F)cc3)cccc12)N[*:1])[*:2]; Trp(7-Ph) = N[C@@H](Cc1c[nH]c2c(-c3ccccc3)cccc12)C(=O)O; Ala(quinolin-3-yl) = N[C@@H](Cc1cnc2ccccc2c1)C(=O)O; 2Nal = N[C@@H](Cc1ccc2ccccc2c1)C(=O)O; AEF = NCCOc1ccc(C[C@H](N)C(=O)O)cc1; Pen = CC(C)(S)[C@H](N)C(=O)O; αMeK = C[C@](N)(CCCCN)C(=O)O; Thp = NC1(C(=O)O)CCOCC1

The IC50 is the midpoint of a concentration-inhibition curve. Molecule `CC(=O)NCCCC[C@@H]1NC(=O)[C@H](Cc2c[nH]c3c(-c4cccc(C(F)(F)F)c4)cccc23)NC(=O)[C@H]([C@@H](C)O)NC(=O)[C@H](CC(N)=O)NC(=O)[C@@H](NC(C)=O)C(C)(C)SSC(C)(C)[C@@H](C(=O)N[C@@H](Cc2ccc(OCCN)cc2)C(=O)N[C@@H](Cc2ccc3ccccc3c2)C(=O)N[C@@](C)(CCCCN)C(=O)N[C@@H](CCCCNC(C)=O)C(=O)N[C@@H](CC(N)=O)C(=O)N[C@H](CCCCN)C(N)=O)NC1=O` [Peptide 9, Ac-[Pen]-N-T-[W(7-(3-CF3Ph))]-[Lys(Ac)]-[Pen]-Phe[4-(2-aminoethoxy)]-[2-Nal]-[a-MeLys]-[Lys(Ac)]-N-[(D)Lys)]-NH2] (Ac-[Pen]NT[X1]K(Ac)[Pen][AEF][2Nal][αMeK]K(Ac)N[dK]-NH2; disulfide 1-6) displayed an IC50 in series [1] of 9.3 nM. Further, the “SIF t1/2” value in series [2] is 24 h. Also, the half-life at 20 μM in series [3], in series [4] and in series [5] (pooled) was above 24 h in each case.
In turn, `CC(=O)NCCCC[C@@H]1NC(=O)[C@H](Cc2c[nH]c3c(-c4ccc(F)cc4)cccc23)NC(=O)[C@H]([C@@H](C)O)NC(=O)[C@H](CC(N)=O)NC(=O)[C@@H](NC(C)=O)C(C)(C)SSC(C)(C)[C@@H](C(=O)N[C@@H](Cc2ccc(OCCN)cc2)C(=O)N[C@@H](Cc2ccc3ccccc3c2)C(=O)N[C@@](C)(CCCCN)C(=O)N[C@@H](CCCCNC(C)=O)C(=O)N[C@@H](CC(N)=O)C(=O)N[C@H](CCCCN)C(N)=O)NC1=O` [Peptide 10, Ac-[Pen]-N-T-[W(7-(4-FPh))]-[Lys(Ac)]-[Pen]-Phe[4-(2-aminoethoxy)]-[2-Nal]-[a-MeLys]-[Lys(Ac)]-N-[(D)Lys)]-NH2] (Ac-[Pen]NT[X2]K(Ac)[Pen][AEF][2Nal][αMeK]K(Ac)N[dK]-NH2; disulfide 1-6) showed a 50% inhibitory concentration (IC50) in series [1] of 3.32 nM. Also, the “SIF t1/2” value in series [2] is 24 h. For the same molecule, the half-life at 20 μM in series [3], in series [4] and in series [5] (pooled) was above 24 h each time.
With `CC(=O)NCCCC[C@@H]1NC(=O)[C@H](Cc2c[nH]c3c(-c4ccccc4)cccc23)NC(=O)[C@H]([C@@H](C)O)NC(=O)[C@H](CC(N)=O)NC(=O)[C@@H](NC(C)=O)C(C)(C)SSC(C)(C)[C@@H](C(=O)N[C@@H](Cc2ccc(OCCN)cc2)C(=O)N[C@@H](Cc2cnc3ccccc3c2)C(=O)NC2(C(=O)N[C@@H](CCC(=O)O)C(=O)N[C@@H](CC(N)=O)C(=O)N[C@H](CCCCN)C(N)=O)CCOCC2)NC1=O` [Peptide 13, Ac-[Pen]-N-T-[W(7-Ph)]-[Lys(Ac)]-[Pen]-Phe[4-(2-aminoethoxy)]-[3Quin]-[THP]-E-N-[(D)Lys]-NH2] (Ac-[Pen]NT[Trp(7-Ph)]K(Ac)[Pen][AEF][Ala(quinolin-3-yl)][Thp]EN[dK]-NH2; disulfide 1-6), in series [1], half-maximal inhibition (IC50) was put at 1.55 nM. Besides, the “SIF t1/2” value in series [2] was 24 h. The half-life at 20 μM in series [3] (setting [6]), in series [4] (setting [6]) and in series [5] was above 24 h each time.
Take `CC(=O)NCCCC[C@@H]1NC(=O)[C@H](Cc2c[nH]c3c(-c4ccccc4)cccc23)NC(=O)[C@H]([C@@H](C)O)NC(=O)[C@H](CC(N)=O)NC(=O)[C@@H](NC(C)=O)C(C)(C)SSC(C)(C)[C@@H](C(=O)N[C@@H](Cc2ccc(OCCN)cc2)C(=O)N[C@@H](Cc2cnc3ccccc3c2)C(=O)N[C@@](C)(CCCCN)C(=O)N[C@@H](CCCCNC(C)=O)C(=O)N[C@@H](CC(N)=O)C(=O)N[C@H](CCCCN)C(N)=O)NC1=O` [Peptide 14, Ac-[Pen]-N-T-[W(7-Ph)]-[Lys(Ac)]-[Pen]-Phe[4-(2-aminoethoxy)]-[3Quin]-[a-MeLys]-[Lys(Ac)]-N-[(D)Lys]-NH2] (Ac-[Pen]NT[Trp(7-Ph)]K(Ac)[Pen][AEF][Ala(quinolin-3-yl)][αMeK]K(Ac)N[dK]-NH2; disulfide 1-6): half-maximal inhibition in series [1] (IC50) was put at 2.41 nM. For the same molecule, the “SIF t1/2” value in series [2] was 24 h. For the same molecule, the half-life at 20 μM in series [3] (setting [6]), in series [4] (setting [6]) and in series [5] was above 24 h each time.
The molecule `CC(=O)NCCCC[C@@H]1NC(=O)[C@H](Cc2c[nH]c3c(-c4ccccc4)cccc23)NC(=O)[C@H]([C@@H](C)O)NC(=O)[C@H](CC(N)=O)NC(=O)[C@@H](NC(C)=O)C(C)(C)SSC(C)(C)[C@@H](C(=O)N[C@@H](Cc2ccc(OCCN)cc2)C(=O)N[C@@H](Cc2cnc3ccccc3c2)C(=O)NC2(C(=O)N[C@@H](CCC(=O)O)C(=O)N[C@@H](CC(N)=O)C(=O)N[C@H](CC(C)C)C(N)=O)CCOCC2)NC1=O` [Peptide 15, Ac-[Pen]-N-T-[W(7-Ph)]-[Lys(Ac)]-[Pen]-Phe[4-(2-aminoethoxy)]-[3Quin]-[THP]-E-N-[(D)Leu]-NH2] (Ac-[Pen]NT[Trp(7-Ph)]K(Ac)[Pen][AEF][Ala(quinolin-3-yl)][Thp]EN[dL]-NH2; disulfide 1-6) returned an IC50 in series [1] of 2.44 nM. For the same molecule, the “SIF t1/2” value in series [2] was 24 h. The half-life at 20 μM in series [3] (setting [6]), in series [4] (setting [6]) and in series [5] was above 24 h each time.
Regarding `CC(=O)NCCCC[C@@H]1NC(=O)[C@H](Cc2c[nH]c3c(-c4ccccc4)cccc23)NC(=O)[C@H]([C@@H](C)O)NC(=O)[C@H](CC(N)=O)NC(=O)[C@@H](NC(C)=O)C(C)(C)SSC(C)(C)[C@@H](C(=O)N[C@@H](Cc2ccc(OCCN)cc2)C(=O)N[C@@H](Cc2cnc3ccccc3c2)C(=O)N[C@@](C)(CCCCN)C(=O)N[C@@H](CCCCNC(C)=O)C(=O)N[C@@H](CC(N)=O)C(=O)N[C@H](CC(C)C)C(N)=O)NC1=O` [Peptide 16, Ac-[Pen]-N-T-[W(7-Ph)]-[Lys(Ac)]-[Pen]-Phe[4-(2-aminoethoxy)]-[3Quin]-[a-MeLys]-[Lys(Ac)]-N-[(D)Leu]-NH2] (Ac-[Pen]NT[Trp(7-Ph)]K(Ac)[Pen][AEF][Ala(quinolin-3-yl)][αMeK]K(Ac)N[dL]-NH2; disulfide 1-6), in series [1], the IC50 worked out at 2.9 nM. In series [2], the “SIF t1/2” value is 24 h. The half-life at 20 μM in series [3] (setting [6]), in series [4] (setting [6]) and in series [5] was above 24 h throughout.
